Assay results taken from US20200377496A1, “INDOLE AND BENZIMIDAZOLE DERIVATIVES AS DUAL 5-HT2A and 5-HT6 RECEPTOR ANTAGONISTS” (ADAMED PHARMA, S.A., priority 2018, published 2020).
Read-outs that look alike come from different tables or passages of the source.

Columns and labels:
5-HT6 receptors = 5-HT6 receptors (Homo sapiens, UniProt P50406); experiment: 5-HT6 receptor binding assay ([3H]-LSD radioligand); details: membranes from CHO-K1 cells with human 5-HT6 receptor, [3H]-LSD 1 nM
Experimental: (§1) Preparation of Solutions of Test and Reference Compounds.
(§2) 1 mM stock solutions of tested compounds were prepared in DMSO. Serial dilutions of compounds were prepared in 96-well microplate in assay buffers using automated pipetting system epMotion 5070 (Eppendorf). Each compound was tested in 10 concentrations from 1.0E-6 to 1.0E-11 M (final concentration).
5-HT6 Receptor Binding Assay.
Radioligand binding was performed using membranes from CHO-K1 cells stably transfected with the human 5-HT6 receptor (PerkinElmer). All assays were carried out in duplicates. 50 μl working solution of the tested compounds, 50 μl [3H]-LSD (final concentration 1 nM) and 150 μl diluted membranes (8 μg protein per well) prepared in assay buffer (50 mM Tris, pH 7.4, 10 mM MgCl2, 0.1 mM EDTA) were transferred to polypropylene 96 well microplate using 96-wells pipetting station Rainin Liquidator (MettlerToledo). Methiothepin (10 μM) was used to define nonspecific binding. Microplate was covered with a sealing tape, mixed and incubated for 60 minutes at 37° C. The reaction was terminated by rapid filtration through GF/A filter mate presoaked with 0.5% polyethyleneimine for 30 minutes. Ten rapid washes with 200 μl 50 mM Tris buffer (4° C., pH 7.4) were performed using automated harvester system Harvester-96 MACH III FM (Tomtec). The filter mates were dried at 37° C. in forced air fan incubator and then solid scintilator MeltiLex was melted on filter mates at 90° C. for 5 minutes. Radioactivity was counted in MicroBeta2 scintillation counter (PerkinElmer). Data were fitted to a one-site curve-fitting equation with Prism 6 (GraphPad Software) and Ki values were estimated from the Cheng-Prusoff equation.

human 5-HT2A receptor = human 5-HT2A receptor (Homo sapiens, UniProt P28223); experiment: 5-HT2A receptor binding assay ([3H]-ketanserin radioligand)
Experimental: as §1, §2
5-HT2A Receptor Binding Assay.
Radioligand binding was performed using membranes from CHO K1 cells stably transfected with the human 5-HT2A receptor (PerkinElmer). All assays were carried out in duplicates. 50 μl working solution of the tested compounds, 50 μl [3H]-ketanserin (final concentration 1 nM) and 150 μl diluted membranes (7 μg protein per well) prepared in assay buffer (50 mM Tris, pH 7.4, 4 mM CaCl2, 0.1% ascorbic acid) were transferred to polypropylene 96-well microplate using 96-wells pipetting station Rainin Liquidator (MettlerToledo). Mianserin (10 μM) was used to define nonspecific binding. Microplate was covered with a sealing tape, mixed and incubated for 60 minutes at 27° C. The reaction was terminated by rapid filtration through GF/B filter mate presoaked with 0.5% polyethyleneimine for 30 minutes. Ten rapid washes with 200 μl 50 mM Tris buffer (4° C., pH 7.4) were performed using automated harvester system Harvester-96 MACH III FM (Tomtec). The filter mates were dried at 37° C. in forced air fan incubator and then solid scintilator MeltiLex was melted on filter mates at 90° C. for 5 minutes. Radioactivity was counted in MicroBeta2 scintillation counter (PerkinElmer). Data were fitted to a one-site curve-fitting equation with Prism 6 (GraphPad Software) and Ki values were estimated from the Cheng-Prusoff equation.

human GPCR 5-HT6 = human GPCR 5-HT6 (Homo sapiens, UniProt P50406); experiment: Cellular aequorin-based functional assay, 5-HT6; assay type: cell-based; details: for 5-HT6 AGO EC50 [nM]: agonist mode, CHO-K1 aequorin cells; for Kb: antagonist mode, reference agonist serotonin 40 nM (EC80), read-out: 5-HT6 ANT Kb
Experimental: as §1
(§3) 1 mM stock solutions of the tested compounds were prepared in DMSO. Serial dilutions were prepared in 96-well microplate in assay buffers using automated pipetting system epMotion 5070 (Eppendorf). Two independent experiments in duplicates were performed and 6 to 10 concentrations were tested.
(§4) 5-HT2A and 5-HT6 Functional Activity Assays.
(§5) Cellular aequorin-based functional assays were performed with γ-irradiated recombinant CHO-K1 cells expressing mitochondrially-targeted Aequorin, human GPCR (5-HT2A or 5-HT6) and the promiscuous G protein α16 (PerkinElemer). Assays were performed according to the standard protocol provided by the manufacturer. After thawing, cells were transferred to assay buffer (DMEM/HAM's F12 with 0.1% protease-free BSA) and centrifuged. Cell pellet was resuspended in assay buffer and coelenterazine h was added at final concentrations of 5 μM. Cell suspension was incubated at 21° C., protected from light with constant agitation, for 4 hours and then diluted with assay buffer to a concentration of 250,000 cells/ml. After 1 hour incubation 50 yl cell suspension was dispensed using automatic injectors built in radiometric and luminescence plate counter MicroBeta2 LumiJET (PerkinElmer, USA) into white opaque 96-well microplate preloaded with tested compounds. Immediate light emission generated following calcium mobilization was recorded for 30-60 seconds. In antagonist mode, after 15-30 minutes incubation reference agonist was added to the above assay mix and light emission was recorded again. Final concentration of reference agonist was equal EC80: serotonin 40 nM for 5-HT6 receptor and α-methylserotonin 30 nM for 5-HT2A receptor. The assays were performed in the agonist mode (5-HT6 AGO and 5-HT2A AGO) as well as antagonist mode (5-HT6 ANT and 5-HT2A ANT).
(§6) IC50 and EC50 were determined by non-linear regression analysis using GraphPad Prism 6.0 software. The log IC50 was used to obtain the Kb by applying the Cheng-Prusoff approximation.

human GPCR 5-HT2A = human GPCR 5-HT2A (Homo sapiens, UniProt P28223); experiment: Cellular aequorin-based functional assay, 5-HT2A; assay type: cell-based; details: for 5-HT2A AGO EC50 [nM]: agonist mode, CHO-K1 aequorin cells
Experimental: as §1, §3, §4, §5, §6

[1] = membranes from CHO K1 cells with human 5-HT2A receptor, [3H]-ketanserin 1 nM, read-out: 5-HT2A Ki
[2] = antagonist mode, reference agonist α-methylserotonin 30 nM (EC80), read-out: 5-HT2A ANT Kb

human 5-HT2A receptor, sequence (P28223 whole entry): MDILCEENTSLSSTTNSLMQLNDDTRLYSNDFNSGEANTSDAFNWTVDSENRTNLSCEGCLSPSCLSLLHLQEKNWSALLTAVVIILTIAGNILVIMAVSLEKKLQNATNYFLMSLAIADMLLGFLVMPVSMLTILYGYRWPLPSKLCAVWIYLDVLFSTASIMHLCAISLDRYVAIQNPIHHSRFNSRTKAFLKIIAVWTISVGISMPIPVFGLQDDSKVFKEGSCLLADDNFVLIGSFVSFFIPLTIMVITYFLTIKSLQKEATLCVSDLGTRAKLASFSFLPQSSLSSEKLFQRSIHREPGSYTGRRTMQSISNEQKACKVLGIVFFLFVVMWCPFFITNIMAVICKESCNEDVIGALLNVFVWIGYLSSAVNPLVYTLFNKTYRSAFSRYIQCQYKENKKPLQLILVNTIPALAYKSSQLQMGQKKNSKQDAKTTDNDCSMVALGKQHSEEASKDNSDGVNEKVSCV
human GPCR 5-HT2A, sequence (P28223 whole entry): as above
human GPCR 5-HT6, sequence (P50406 whole entry): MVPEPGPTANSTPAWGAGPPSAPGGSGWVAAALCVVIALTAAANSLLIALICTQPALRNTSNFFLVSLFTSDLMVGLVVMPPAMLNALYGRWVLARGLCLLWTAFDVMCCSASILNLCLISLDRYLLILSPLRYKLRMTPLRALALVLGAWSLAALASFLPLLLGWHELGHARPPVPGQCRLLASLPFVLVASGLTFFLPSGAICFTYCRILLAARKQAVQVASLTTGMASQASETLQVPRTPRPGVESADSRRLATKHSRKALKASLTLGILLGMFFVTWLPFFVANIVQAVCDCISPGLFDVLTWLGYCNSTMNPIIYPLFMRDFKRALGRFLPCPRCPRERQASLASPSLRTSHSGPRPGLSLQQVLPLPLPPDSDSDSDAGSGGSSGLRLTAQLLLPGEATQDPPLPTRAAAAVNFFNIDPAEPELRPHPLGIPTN
5-HT6 receptors, sequence (P50406 whole entry): as above

Row | Structure (SMILES) | Ki (5-HT6 receptors) | Ki (human 5-HT2A receptor) | 5-HT6 AGO EC50 [nM] (human GPCR 5-HT6) | Kb (human GPCR 5-HT6) | Kb (human GPCR 5-HT2A) | 5-HT2A AGO EC50 [nM] (human GPCR 5-HT2A) | Ki (human 5-HT2A receptor; [1]) | Kb (human GPCR 5-HT2A; [2])
1 | Fc1cccc(Cn2c(C(F)(F)F)cc3c(N4CCNCC4)cccc32)c1 [Compound 19, 1-(3-fluorobenzyl)-4-(piperazin-1-yl)-2-(trifluoromethyl)-1H-indole] | 0.35 nM | 1.3 nM | N.C. | 0.14 nM | 21 nM | N.C. | – | –
2 | FC(F)(F)c1nc2c(N3CCNCC3)cccc2n1Cc1cccc(Cl)c1 [Compound 6, 1-(3-chlorobenzyl)-4-(piperazin-1-yl)-2-(trifluoromethyl)-1H-benzimidazole] | 1.7 nM | – | – | – | – | – | 3.8 nM | –
3 | Cc1ccc(Cn2c(C(F)(F)F)cc3c(N4CCNCC4)cccc32)s1 [Compound 29, 1-[(5-methylthiophen-2-yl)methyl]-4-(piperazin-1-yl)-2-(trifluoromethyl)-1H-indole] | 0.11 nM | 0.37 nM | N.C. | 0.051 nM | 9.8 nM | N.C. | – | –
4 | CN1CCN(c2cccc3c2cc(C(F)(F)F)n3Cc2cccc(Cl)c2)CC1 [Compound 27, 1-(3-chlorobenzyl)-4-(4-methylpiperazin-1-yl)-2-(trifluoromethyl)-1H-indole] | – | – | N.C. | 0.31 nM | – | N.C. | – | 56 nM
5 | FC(F)(F)c1cc2c(N3CCNCC3)cccc2n1Cc1cccc(Cl)c1 [Compound 20, 1-(3-chloroobenzyl)-4-(piperazin-1-yl)-2-(trifluoromethyl)-1H-indole] | – | 2.2 nM | N.C. | 1.2 nM | 53 nM | N.C. | – | –
6 | CN1CCN(c2cccc3c2cc(C(F)(F)F)n3Cc2ccc(F)c(F)c2)CC1 [Compound 22, 1-(3,4-difluorobenzyl)-4-(4-methylpiperazin-1-yl)-2-(trifluoromethyl)-1H-indole] | – | – | N.C. | 4.8 nM | – | N.C. | 0.45 nM | 26 nM
7 | Fc1ccc(Cn2c(C(F)(F)F)cc3c(N4CCNCC4)cccc32)cc1F [Compound 25, 1-(3,4-difluorobenzyl)-4-(piperazin-1-yl)-2-(trifluoromethyl)-1H-indole] | 0.37 nM | – | N.C. | 0.65 nM | – | N.C. | 0.71 nM | 20 nM
8 | CN1CCN(c2cccc3c2cc(C(F)(F)F)n3Cc2cccs2)CC1 [Compound 33, 4-(4-methylpiperazin-1-yl)-1-(thiophen-2-ylmethyl)-2-(trifluoromethyl)-1H-indole] | 0.069 nM | – | N.C. | 0.28 nM | – | N.C. | 0.17 nM | 9.7 nM
9 | FC(F)(F)c1cc2c(N3CCNCC3)cccc2n1Cc1cccs1 [Compound 30, 4-(piperazin-1-yl)-1-(thiophen-2-ylmethyl)-2-(trifluoromethyl)-1H-indole] | 0.071 nM | 0.33 nM | N.C. | 0.65 nM | 5.5 nM | N.C. | – | –
10 | CN1CCN(c2cccc3c2cc(C(F)(F)F)n3Cc2cccc(F)c2)CC1 [Compound 24, 1-[(3-fluorophenyl)methyl]-4-(4-methylpiperazin-1-yl)-2-(trifluoromethyl)-1H-indole] | 0.092 nM | – | N.C. | 1.1 nM | – | N.C. | 0.73 nM | 28 nM
11 | FC(F)(F)c1cc2c(N3CCNCC3)cccc2n1Cc1ccccc1 [Compound 12, 1-benzyl-4-(piperazin-1-yl)-2-(trifluoromethyl)-1H-indole] | 0.29 nM | 2.1 nM | N.C. | 0.49 nM | 31 nM | N.C. | – | –
12 | CN1CCN(c2cccc3c2cc(C(F)(F)F)n3Cc2ccc(Cl)c(Cl)c2)CC1 [Compound 13, 1-(3,4-dichlorobenzyl)-4-(4-methylpiperazin-1-yl)-2-(trifluoromethyl)-1H-indole] | 0.98 nM | – | N.C. | 9.1 nM | – | N.C. | 2.6 nM | –
13 | Fc1cc(Cn2c(C(F)(F)F)cc3c(N4CCNCC4)cccc32)ccc1Cl [Compound 16, 1-(4-chloro-3-fluorobenzyl)-4-(piperazin-1-yl)-2-(trifluoromethyl)-1H-indole] | 0.62 nM | – | N.C. | 4.4 nM | – | N.C. | 0.82 nM | 55 nM
14 | COc1cccc(Cn2c(C(F)(F)F)cc3c(N4CCNCC4)cccc32)c1 [Compound 23, 1-(3-methoxybenzyl)-4-(piperazin-1-yl)-2-(trifluoromethyl)-1H-indole] | – | – | N.C. | 0.26 nM | – | N.C. | – | 28 nM
15 | FC(F)(F)c1nc2c(N3CCNCC3)cccc2n1Cc1ccc(Cl)c(Cl)c1 [Compound 8, 1-(3,4-dichlorobenzyl)-4-(piperazin-1-yl)-2-(trifluoromethyl)-1H-benzo[d]imidazole] | 2 nM | – | – | – | – | – | 2.9 nM | –
16 | COc1cccc(Cn2c(C(F)(F)F)cc3c(N4CCN(C)CC4)cccc32)c1 [Compound 18, 1-(3-methoxybenzyl)-4-(4-methylpiperazin-1-yl)-2-(trifluoromethyl)-1H-indole] | 0.27 nM | – | – | – | – | – | 4.2 nM | –
17 | CN1CCN(c2cccc3c2cc(C(F)(F)F)n3Cc2ccccc2)CC1 [Compound 26, 1-benzyl-4-(4-methylpiperazin-1-yl)-2-(trifluoromethyl)-1H-indole] | 0.087 nM | – | – | – | – | – | 0.91 nM | –
18 | CN1CCN(c2cccc3c2cc(C(F)(F)F)n3Cc2ccco2)CC1 [Compound 21, 1-(furan-2-ylmethyl)-4-(4-methylpiperazin-1-yl)-2-(trifluoromethyl)-1H-indole] | 0.18 nM | – | N.C. | 0.27 nM | – | N.C. | – | 4.3 nM
19 | CN1CCN(c2cccc3c2nc(C(F)(F)F)n3Cc2ccccc2)CC1 [Compound 2, 1-benzyl-4-(4-methylpiperazin-1-yl)-2-(trifluoromethyl)-1H-benzimidazole] | 2.2 nM | – | – | – | – | – | 3.1 nM | –
